Source: patent publication US9669003B2, “Use of flavone and flavanone derivatives in preparation of sedative and hypnotic drugs” (priority 2012, dated 2017)
Marks after values point to notes of the source that are not given here.

system: Kunming mice; assay: Influence on hypnosis effect with pentobarbital sodium doses at the threshold (50 mg/kg i.p.); format: in vivo; conditions: 25 mg/kg intragastric single dose, pentobarbital sodium 50 mg/kg i.p. 60 min later, x ± s, n = 10
Outline: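 Pentobarbital sodium (0.3%, 50 mg/kg i.p.) injected 60 min after a single intragastric dose (25, 50, 100 mg/kg, 0.5% CMC-Na vehicle) in Kunming mice, 10 per group, sexes balanced. Onset and length of sleep (righting reflex lost over 1 min) analysed by ANOVA; sleeping incidence by χ2 test.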

Compound	duration of sleep [min]	time to sleep [min]
Cc1cc(C2CC(=O)c3c(cccc3[N+](=O)[O-])O2)ccc1Oc1ccccc1 (stereo not drawn) [Example 63]	47.87 ± 14.62	3.43 ± 1.46
COc1c(O)cc(C2CC(=O)c3c(O)cc(O)cc3O2)cc1C(=O)O (stereo not drawn) [Example 50]	22.71 ± 26.17	5.41 ± 2.17
CCCCCc1cc(-c2cc(=O)c3c(CC)cc(CCCCCCl)cc3o2)cc(O)c1Cc1ccccc1 [Example 19]	30.63 ± 20.25	4.95 ± 2.00

same assay, conditions: 50 mg/kg intragastric single dose, pentobarbital sodium 50 mg/kg i.p. 60 min later, x ± s, n = 10

Compound	duration of sleep [min]	time to sleep [min]
Cc1cc(C2CC(=O)c3c(cccc3[N+](=O)[O-])O2)ccc1Oc1ccccc1 (stereo not drawn) [Example 63]	62.64 ± 22.64	3.09 ± 1.41
COc1c(O)cc(C2CC(=O)c3c(O)cc(O)cc3O2)cc1C(=O)O (stereo not drawn) [Example 50]	28.68 ± 27.56	5.07 ± 2.34
CCCCCc1cc(-c2cc(=O)c3c(CC)cc(CCCCCCl)cc3o2)cc(O)c1Cc1ccccc1 [Example 19]	37.67 ± 13.45	4.57 ± 1.65

same assay, conditions: 100 mg/kg intragastric single dose, pentobarbital sodium 50 mg/kg i.p. 60 min later, x ± s, n = 10

Compound	duration of sleep [min]	time to sleep [min]
Cc1cc(C2CC(=O)c3c(cccc3[N+](=O)[O-])O2)ccc1Oc1ccccc1 (stereo not drawn) [Example 63]	87.42 ± 18.53	2.33 ± 1.27
COc1c(O)cc(C2CC(=O)c3c(O)cc(O)cc3O2)cc1C(=O)O (stereo not drawn) [Example 50]	65.35 ± 46.27	3.25 ± 1.16
CCCCCc1cc(-c2cc(=O)c3c(CC)cc(CCCCCCl)cc3o2)cc(O)c1Cc1ccccc1 [Example 19]	52.65 ± 20.15	3.94 ± 1.23

system: Kunming mice; assay: Influence on hypnosis effect with pentobarbital sodium doses below the threshold (25 mg/kg i.p.); format: in vivo; conditions: test drug 25 mg/kg intragastric single dose, pentobarbital sodium 25 mg/kg i.p. 60 min later, sleep observed in 30 min, n = 10
Outline: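 Percentage of mice sleeping within 30 min after subthreshold pentobarbital sodium (25 mg/kg i.p.), defined by loss of righting reflex over 1 min, analysed by χ2. Compound in 0.5% CMC-Na given intragastrically at 25/50/100 mg/kg 60 min before; groups of 10 Kunming mice, both sexes.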

Compound	Number of sleeping animals	rate of sleeping (%)
Cc1cc(C2CC(=O)c3c(cccc3[N+](=O)[O-])O2)ccc1Oc1ccccc1 (stereo not drawn) [Example 63]	6	60** %
COc1c(O)cc(C2CC(=O)c3c(O)cc(O)cc3O2)cc1C(=O)O (stereo not drawn) [Example 50]	2	20%
CCCCCc1cc(-c2cc(=O)c3c(CC)cc(CCCCCCl)cc3o2)cc(O)c1Cc1ccccc1 [Example 19]	3	30%

same assay, conditions: test drug 50 mg/kg intragastric single dose, pentobarbital sodium 25 mg/kg i.p. 60 min later, sleep observed in 30 min, n = 10

Compound	Number of sleeping animals	rate of sleeping (%)
Cc1cc(C2CC(=O)c3c(cccc3[N+](=O)[O-])O2)ccc1Oc1ccccc1 (stereo not drawn) [Example 63]	8	80*** %
COc1c(O)cc(C2CC(=O)c3c(O)cc(O)cc3O2)cc1C(=O)O (stereo not drawn) [Example 50]	4	40* %
CCCCCc1cc(-c2cc(=O)c3c(CC)cc(CCCCCCl)cc3o2)cc(O)c1Cc1ccccc1 [Example 19]	6	60** %

same assay, conditions: test drug 100 mg/kg intragastric single dose, pentobarbital sodium 25 mg/kg i.p. 60 min later, sleep observed in 30 min, n = 10

Compound	Number of sleeping animals	rate of sleeping (%)
Cc1cc(C2CC(=O)c3c(cccc3[N+](=O)[O-])O2)ccc1Oc1ccccc1 (stereo not drawn) [Example 63]	9	90*** %
COc1c(O)cc(C2CC(=O)c3c(O)cc(O)cc3O2)cc1C(=O)O (stereo not drawn) [Example 50]	7	70** %
CCCCCc1cc(-c2cc(=O)c3c(CC)cc(CCCCCCl)cc3o2)cc(O)c1Cc1ccccc1 [Example 19]	7	70** %

system: Kunming mice; assay: Influence on autonomic activity of normal mice (ZIL-2 mice autonomic activity meter, counts within 10 min); format: in vivo; conditions: intragastric, 25 mg/kg, 1 h after administration, x ± s, n = 10
Outline: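 Activity counts during a 10-min window were taken at 1, 2 and 24 h after dosing in groups of 10 mixed-sex Kunming mice. Compounds were given in 0.5% CMC-Na at 25, 50 or 100 mg/kg. Statistics used Levene's homogeneity test, ANOVA and Dunnett's multiple comparisons.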

Compound	Times of activities in 1 h after drug administration/10 min
Cc1cc(C2CC(=O)c3c(cccc3[N+](=O)[O-])O2)ccc1Oc1ccccc1 (stereo not drawn) [Example 63]	250.6 ± 35.5 /10 min
COc1c(O)cc(C2CC(=O)c3c(O)cc(O)cc3O2)cc1C(=O)O (stereo not drawn) [Example 50]	319.2 ± 55.4 /10 min
CCCCCc1cc(-c2cc(=O)c3c(CC)cc(CCCCCCl)cc3o2)cc(O)c1Cc1ccccc1 [Example 19]	282.2 ± 46.5 /10 min

same assay, conditions: intragastric, 25 mg/kg, 2 h after administration, x ± s, n = 10

Compound	Times of activities in 2 h after drug administration/10 min
Cc1cc(C2CC(=O)c3c(cccc3[N+](=O)[O-])O2)ccc1Oc1ccccc1 (stereo not drawn) [Example 63]	239.3 ± 34.6 /10 min
COc1c(O)cc(C2CC(=O)c3c(O)cc(O)cc3O2)cc1C(=O)O (stereo not drawn) [Example 50]	290.6 ± 41.2 /10 min
CCCCCc1cc(-c2cc(=O)c3c(CC)cc(CCCCCCl)cc3o2)cc(O)c1Cc1ccccc1 [Example 19]	265.0 ± 45.3 /10 min

same assay, conditions: intragastric, 25 mg/kg, 24 h after administration, x ± s, n = 10

Compound	Times of activities in 24 h after drug administration/10 min
Cc1cc(C2CC(=O)c3c(cccc3[N+](=O)[O-])O2)ccc1Oc1ccccc1 (stereo not drawn) [Example 63]	269.5 ± 79.5 /10 min
COc1c(O)cc(C2CC(=O)c3c(O)cc(O)cc3O2)cc1C(=O)O (stereo not drawn) [Example 50]	303.2 ± 78.6 /10 min
CCCCCc1cc(-c2cc(=O)c3c(CC)cc(CCCCCCl)cc3o2)cc(O)c1Cc1ccccc1 [Example 19]	302.8 ± 83.2 /10 min

same assay, conditions: intragastric, 50 mg/kg, 1 h after administration, x ± s, n = 10

Compound	Times of activities in 1 h after drug administration/10 min
Cc1cc(C2CC(=O)c3c(cccc3[N+](=O)[O-])O2)ccc1Oc1ccccc1 (stereo not drawn) [Example 63]	168.5 ± 53.0 /10 min
COc1c(O)cc(C2CC(=O)c3c(O)cc(O)cc3O2)cc1C(=O)O (stereo not drawn) [Example 50]	297.5 ± 42.5 /10 min
CCCCCc1cc(-c2cc(=O)c3c(CC)cc(CCCCCCl)cc3o2)cc(O)c1Cc1ccccc1 [Example 19]	234.7 ± 40.1 /10 min

same assay, conditions: intragastric, 50 mg/kg, 2 h after administration, x ± s, n = 10

Compound	Times of activities in 2 h after drug administration/10 min
Cc1cc(C2CC(=O)c3c(cccc3[N+](=O)[O-])O2)ccc1Oc1ccccc1 (stereo not drawn) [Example 63]	151.3 ± 57.0 /10 min
COc1c(O)cc(C2CC(=O)c3c(O)cc(O)cc3O2)cc1C(=O)O (stereo not drawn) [Example 50]	253.5 ± 40.4 /10 min
CCCCCc1cc(-c2cc(=O)c3c(CC)cc(CCCCCCl)cc3o2)cc(O)c1Cc1ccccc1 [Example 19]	243.5 ± 48.3 /10 min

same assay, conditions: intragastric, 50 mg/kg, 24 h after administration, x ± s, n = 10

Compound	Times of activities in 24 h after drug administration/10 min
Cc1cc(C2CC(=O)c3c(cccc3[N+](=O)[O-])O2)ccc1Oc1ccccc1 (stereo not drawn) [Example 63]	283.8 ± 79.3 /10 min
COc1c(O)cc(C2CC(=O)c3c(O)cc(O)cc3O2)cc1C(=O)O (stereo not drawn) [Example 50]	304.7 ± 92.8 /10 min
CCCCCc1cc(-c2cc(=O)c3c(CC)cc(CCCCCCl)cc3o2)cc(O)c1Cc1ccccc1 [Example 19]	306.2 ± 81.3 /10 min

same assay, conditions: intragastric, 100 mg/kg, 1 h after administration, x ± s, n = 10

Compound	Times of activities in 1 h after drug administration/10 min
Cc1cc(C2CC(=O)c3c(cccc3[N+](=O)[O-])O2)ccc1Oc1ccccc1 (stereo not drawn) [Example 63]	124.5 ± 42.0 /10 min
COc1c(O)cc(C2CC(=O)c3c(O)cc(O)cc3O2)cc1C(=O)O (stereo not drawn) [Example 50]	279.4 ± 48.3 /10 min
CCCCCc1cc(-c2cc(=O)c3c(CC)cc(CCCCCCl)cc3o2)cc(O)c1Cc1ccccc1 [Example 19]	229.6 ± 34.8 /10 min

same assay, conditions: intragastric, 100 mg/kg, 2 h after administration, x ± s, n = 10

Compound	Times of activities in 2 h after drug administration/10 min
Cc1cc(C2CC(=O)c3c(cccc3[N+](=O)[O-])O2)ccc1Oc1ccccc1 (stereo not drawn) [Example 63]	117.3 ± 54.8 /10 min
COc1c(O)cc(C2CC(=O)c3c(O)cc(O)cc3O2)cc1C(=O)O (stereo not drawn) [Example 50]	224.7 ± 46.3 /10 min
CCCCCc1cc(-c2cc(=O)c3c(CC)cc(CCCCCCl)cc3o2)cc(O)c1Cc1ccccc1 [Example 19]	172.5 ± 39.2 /10 min

same assay, conditions: intragastric, 100 mg/kg, 24 h after administration, x ± s, n = 10

Compound	Times of activities in 24 h after drug administration/10 min
Cc1cc(C2CC(=O)c3c(cccc3[N+](=O)[O-])O2)ccc1Oc1ccccc1 (stereo not drawn) [Example 63]	320.3 ± 76.0 /10 min
COc1c(O)cc(C2CC(=O)c3c(O)cc(O)cc3O2)cc1C(=O)O (stereo not drawn) [Example 50]	312.4 ± 79.1 /10 min
CCCCCc1cc(-c2cc(=O)c3c(CC)cc(CCCCCCl)cc3o2)cc(O)c1Cc1ccccc1 [Example 19]	287.8 ± 89.1 /10 min
